One assay deals with p38 and c-jun. The experiment in a line: Primary high content screen, red channel: cytoplasm to nucleus translocation of p38 and c-jun (pooled reporter set). It is filed as cell-based. Particulars: Swiss 3T3 cells, 30 minutes treatment, ALEXA FLUOR 568 secondary antibodies, FIG. 6. An excerpt: (§1) 1. Cytoplasm to nuclear translocation: (A preferred embodiment of the method is described in detail in U.S. Pat. No. 5,989,835) A nuclear image is acquired and preferably thresholded to create a nuclear mask. A cytoplasmic image is created using either the nuclear image or the fluorescent signals from the fluorescent reporter molecules in the reporter set. Preferably, a cytoplasmic mask is created. Translocation of the fluorescent reporter molecules in an appropriate reporter set(s) between the nucleus and cytoplasm can then be determined by detecting fluorescent signals in the nuclear mask and cytoplasmic mask in the presence and absence of the one or more test compounds.
(§2) In this example, two reporter sets were used, each containing two fluorescent reporter molecules. The first reporter set consisted of ALEXA FLUOR® 488 conjugated secondary antibodies (Molecular Probes, Inc.), which both emit fluorescence detectable in the green channel. These secondary antibodies were used to bind to primary antibodies against extracellular (signal) regulated kinase (ERK) (Cell Signaling Technologies, Inc.) and Nf-kB (Zymed, Inc.). The second reporter set consisted of ALEXA FLUOR® 568 conjugated secondary antibodies (Molecular Probes, Inc.) which both emit fluorescence detectable in the red channel. These secondary antibodies were used to bind to primary antibodies against c-jun and p38.
(§3) In this experiment, the transcription factors under investigation translocate from the cytoplasm to the nucleus upon activation. Therefore, the fluorescent reporter molecules, which indirectly bind to the transcription factors, can be used to monitor the distribution of the transcription factors within the cell. However, each reporter reports on a different cellular event (i.e.: ERK translocation, Nf-kB translocation, c-jun translocation, and p38 translocation).
(§4) Swiss 3T3 cells in EMEM culture medium were plated in 96 well plates, at a plating density of 3,500 cells per well, and allowed to incubate overnight. […]

In another assay the test system is NFkB and ERK. The experiment in a line: Primary high content screen, green channel: cytoplasm to nucleus translocation of NFkB and ERK (pooled reporter set). The format is cell-based. As to conditions: Swiss 3T3 cells, 30 minutes treatment, ALEXA FLUOR 488 secondary antibodies, versus negative controls, FIG. 5.
Excerpt: as §1, §2, §3, §4

Here are results for three compounds from patent publication US20060265137A1, “Methods to increase the capacity of high content cell-based screening assays” (Cellomics, Inc., priority 2001, published 2006).

Take TNF: the “translocation in the red channel (p38 and c-jun)” value (shortened to “translocation in the red channel”) in the assay with p38 and c-jun is on record as “not”. Moreover, the “translocation in the green channel (NFkB and ERK; difference between cytoplasm and nuclear localization)” value in the assay on NFkB and ERK was “both NFkB and ERK specific translocations can be observed”.
`CCCCCCCCCCCCCC(=O)O[C@@H]1[C@@H](C)[C@@]2(O)[C@@H](C=C(CO)C[C@]3(O)C(=O)C(C)=C[C@@H]23)[C@@H]2C(C)(C)[C@]12OC(C)=O` [PMA]: in the assay on p38 and c-jun, the “translocation in the red channel” value was “increase in translocation for p38 and c-jun”. In the assay with NFkB and ERK, the “translocation in the green channel (NFkB and ERK; difference between cytoplasm and nuclear localization)” value was “both NFkB and ERK specific translocations can be observed”.
In the case of `COc1ccc(C[C@H]2NC[C@H](O)[C@H]2OC(C)=O)cc1` [anisomysin], in the assay with p38 and c-jun, the “translocation in the red channel” value was “increase in translocation for p38 and c-jun”. In addition, the “translocation in the green channel (NFkB and ERK; difference between cytoplasm and nuclear localization)” value with NFkB and ERK is on record as “no effect on translocation in the green channel over negative controls”.
